Measured values published in US20020044971A1, “Dissolution rate of poorly soluble drugs” (priority 2000, published 2002).
In brackets after ≈: the same amount, converted by molar mass. Where two headings read alike, the source gives them in different places.

Legend:
[1] = aqueous solubility, cited from earlier work
[2] = Volume of fluid required to achieve complete dissolution of the dose; format: physicochemical; settings: for the dose listed in Table 1
Excerpt: The volume requirement of the boundary layer is a function of the solubilizing effect of the surfactant. This volume can be calculated by dividing the mass of the particle by the solubility of the drug.

| YDISSOLUTION (volume of fluid required to achieve complete dissolution) [2] | Structure (SMILES) | Solubility [1] | Solubility ([1]; measured at 39° C.) |
| --- | --- | --- | --- |
| 3.6 L | O=C(O)c1cc(-c2ccc(F)cc2F)ccc1O [Diflumisal] | 10 µg/mL (≈ 40 µM) |  |
| 29.4 L | COC1=CC(=O)C[C@@H](C)[C@]12Oc1c(Cl)c(OC)cc(OC)c1C2=O [Griseofulvin] |  | 17 µg/mL (≈ 48.2 µM) |
| 4.3 L | NC(=O)N1c2ccccc2C=Cc2ccccc21 [Carbamazepine] | 400 µg/mL (≈ 1690 µM) |  |
| 5.0 L | CC(C)(C)NC(=O)[C@H]1CC[C@H]2[C@@H]3CC[C@H]4NC(=O)C=C[C@]4(C)[C@H]3CC[C@]12C [Finasteride] | 1 µg/mL (≈ 2.68 µM) |  |

Further lines, the compound ahead of its results:

| Structure (SMILES) | YDISSOLUTION (volume of fluid required to achieve complete dissolution) [2] | Solubility [1] | Solubility ([1]; measured at 39° C.) |
| --- | --- | --- | --- |
| OC(Cn1cncn1)(Cn1cncn1)c1ccc(F)cc1F [Fluconazole] | 2.0 L | 100 µg/mL (≈ 327 µM) |  |
| CN1C(C(=O)Nc2ccccn2)=C(O)c2ccccc2S1(=O)=O [Piroxicam] | 8.2 L | 10 µg/mL (≈ 30.2 µM) |  |
| CCC(C)n1ncn(-c2ccc(N3CCN(c4ccc(OCC5COC(Cn6cncn6)(c6ccc(Cl)cc6Cl)O5)cc4)CC3)cc2)c1=O (stereo not drawn) [Itraconozole] | 9.9 L | 1 µg/mL (≈ 1.42 µM) |  |
| C[C@H]1O[C@@H](O[C@H]2[C@@H](O)C[C@H](O[C@H]3[C@@H](O)C[C@H](O[C@H]4CC[C@@]5(C)[C@H](CC[C@@H]6[C@@H]5C[C@@H](O)[C@]5(C)[C@@H](C7=CC(=O)OC7)CC[C@]65O)C4)O[C@@H]3C)O[C@@H]2C)C[C@H](O)[C@@H]1O [Digoxin] | 0.021 L |  |  |
